The values that follow come from DBAASP.

Among the test systems are Nocardia asteroides; Candida glabrata 090902; Serratia sp.; Pseudomonas putida; Cryptococcus neoformans; Streptococcus mutans; Saccharomyces cerevisiae; Candida albicans; Escherichia coli; Bacillus subtilis; Salmonella typhimurium; Staphylococcus aureus; Micrococcus luteus; Staphylococcus aureus 37; Staphylococcus aureus 10; Klebsiella pneumoniae; Shigella dysenteriae; Escherichia coli SM101; Micrococcus luteus ML36; Escherichia coli SC9253; Escherichia coli SC9251; Escherichia coli SC9252; Escherichia coli IH3080.

Holding throughout (experiment): ≥ marks a high value that may be exact or a test limit, other limits are often not marked, values filed in µg/mL are converted to µM
Assay [1] has as its system Staphylococcus aureus ATCC 25923.
In assay [2] the test system is Enterococcus faecalis 981.
The subject of assay [3] is Pseudomonas aeruginosa CGMCC 1.50.
For assay [4], the system named is Escherichia coli ATCC 25922.
In assay [5] the test system is Pseudomonas aeruginosa ATCC 15692.
Assay [6] relates to Pseudomonas aeruginosa ATCC 27853.
Assay [7] relates to Enterococcus faecalis ATCC 29212.
Assay [8] concerns Candida parapsilosis ATCC 22019.
Assay [9] has as its system Candida albicans ATCC 90028.
Assay [10] has as its system Klebsiella pneumoniae ATCC 700603.
For assay [11], the system named is Pseudomonas aeruginosa CMCCB 1010.
Assay [12] concerns Candida albicans ATCC 2002.
Assay [13] has as its system Enterobacter cloacae ATCC 13047.

Values after ≈ are worked out from the molar mass of the structure shown.

In general, MIC refers to the lowest concentration that inhibits growth of the organism. A higher MIC goes with weaker potency. On to `CC[C@H](C)[C@H](NC(=O)[C@H](CC(C)C)NC(=O)CNC(=O)[C@@H](NC(=O)[C@@H](NC(=O)[C@@H](N)Cc1ccccc1)[C@@H](C)CC)[C@@H](C)O)C(=O)NCC(=O)NCC(=O)N[C@@H](CC(C)C)C(=O)N[C@@H](CCSC)C(=O)N[C@@H](CCCCN)C(=O)N[C@@H](C)C(=O)N[C@@H](CC(C)C)C(N)=O` [FITGLIGGLMKAL], for which the MIC is 100 µM (≈ 133 µg/mL) in assay [1]; at least 100 µM in the assay on Nocardia asteroides; at least 400 µM in the assay with Candida glabrata 090902; at least 200 µM in [2]; at least 400 µM in assay [3].
`CC(C)C[C@H](NC(=O)[C@H](CCCN=C(N)N)NC(=O)[C@H](C)NC(=O)[C@H](CCCN=C(N)N)NC(=O)[C@H](CC(C)C)NC(=O)[C@H](CO)NC(=O)[C@H](CCC(=O)O)NC(=O)CNC(=O)[C@H](CCCCN)NC(=O)[C@H](CC(C)C)NC(=O)[C@H](CCCN=C(N)N)NC(=O)[C@H](CO)NC(=O)[C@@H](NC(=O)[C@H](CCCCN)NC(=O)[C@@H](NC(=O)[C@@H](NC(=O)CN)C(C)C)C(C)C)C(C)C)C(=O)O` [GVVKVSRLKGESLRARL]: the MIC came to 10.7 µM (≈ 20 µg/mL) with Serratia sp.; 5.35 µM (≈ 10 µg/mL) with Pseudomonas putida; 3.21 µM (≈ 6 µg/mL) against Cryptococcus neoformans; 3.21 µM (≈ 6 µg/mL) in the assay on Streptococcus mutans; 3.21 µM (≈ 6 µg/mL) with Saccharomyces cerevisiae; 5.35 µM (≈ 10 µg/mL) in the assay on Candida albicans. Moreover, the MIC amounted to 5.35 µM (≈ 10 µg/mL) against Escherichia coli, 3.21 µM (≈ 6 µg/mL) in the assay on Bacillus subtilis, 5.35 µM (≈ 10 µg/mL) with Salmonella typhimurium and 10.7 µM (≈ 20 µg/mL) with Staphylococcus aureus.
On to `CC[C@H](C)[C@H](NC(=O)[C@H](C)NC(=O)[C@H](CC(=O)O)NC(=O)[C@H](CC(C)C)NC(=O)CNC(=O)CNC(=O)[C@H](CCCCN)NC(=O)[C@H](C)NC(=O)[C@H](Cc1ccccc1)NC(=O)[C@H](CCCCN)NC(=O)[C@H](CCCCN)NC(=O)[C@H](CC(C)C)NC(=O)CNC(=O)CNC(=O)[C@H](CC(C)C)NC(=O)[C@@H](NC(=O)[C@@H](NC(=O)[C@H](CO)NC(=O)[C@H](Cc1c[nH]c2ccccc12)NC(=O)[C@@H](NC(=O)CN)C(C)C)[C@@H](C)O)[C@@H](C)CC)C(=O)N[C@H](C(=O)N[C@@H](CC(N)=O)C(=O)N1CCC[C@H]1C(=O)N[C@@H](CCCCN)C(=O)O)C(C)C` [GVWSTILGGLKKFAKGGLDAIVNPK], for which the MIC was 2.83 µM (≈ 7.27 µg/mL) in [4]; 11.3 µM (≈ 29.1 µg/mL) in [1]; 0.5 µM (≈ 1.29 µg/mL) in the assay with Micrococcus luteus; 8 µM (≈ 20.6 µg/mL) in the assay with Saccharomyces cerevisiae; 16 µM (≈ 41.1 µg/mL) in [5].
For `CC[C@H](C)[C@H](N)C(=O)N[C@@H](CC(N)=O)C(=O)N[C@@H](CC(C)C)C(=O)N[C@@H](CCCCN)C(=O)N[C@@H](C)C(=O)N[C@H](C(=O)N[C@H](C(=O)N[C@@H](C)C(=O)N[C@@H](CC(C)C)C(=O)N[C@@H](C)C(=O)N[C@@H](CCCCN)C(=O)N[C@@H](CCCCN)C(=O)N[C@@H](CC(C)C)C(=O)N[C@@H](CC(C)C)C(=O)O)[C@@H](C)O)[C@@H](C)CC` [INLKAITALAKKLL], the minimal inhibitory concentration (MIC) in assay [1] was found to be 6.62 µM (≈ 10 µg/mL); in assay [6], 53 µM (≈ 80 µg/mL); against Staphylococcus aureus 37, 3.31 µM (≈ 5 µg/mL); in assay [7] it was 3.31 µM (≈ 5 µg/mL); in assay [8] it was 1.66 µM (≈ 2.5 µg/mL); in assay [9], 6.62 µM (≈ 10 µg/mL). The MIC worked out at 26.5 µM (≈ 40 µg/mL) in [10]; 1.66 µM (≈ 2.5 µg/mL) against Staphylococcus aureus 10; 6.62 µM (≈ 10 µg/mL) in [11]; 3.31 µM (≈ 5 µg/mL) in [12]; 13.2 µM (≈ 20 µg/mL) against Klebsiella pneumoniae; 6.62 µM (≈ 10 µg/mL) in the assay on Shigella dysenteriae. Also, the MIC in [13] stood at 3.31 µM (≈ 5 µg/mL).
Regarding `NCCCC[C@H](NC(=O)[C@H](Cc1ccccc1)NC(=O)[C@H](Cc1ccccc1)NC(=O)[C@H](CCCCN)NC(=O)[C@H](Cc1ccccc1)NC(=O)[C@H](Cc1ccccc1)NC(=O)[C@@H](N)CCCCN)C(=O)N[C@@H](Cc1ccccc1)C(=O)N[C@@H](Cc1ccccc1)C(=O)O` [KFFKFFKFF], the MIC in the assay on Escherichia coli SM101 was 23.3 µM (≈ 30 µg/mL); in the assay on Micrococcus luteus ML36, 7.78 µM (≈ 10 µg/mL); against Escherichia coli SC9253 it was 23.3 µM (≈ 30 µg/mL); in the assay on Escherichia coli SC9251 it was 23.3 µM (≈ 30 µg/mL); against Escherichia coli SC9252 it was 23.3 µM (≈ 30 µg/mL); against Escherichia coli IH3080, at least 77.8 µM.
